What was measured:
pancreatic lipase = target: T1, pancreatic lipase (Homo sapiens, UniProt P16233); test: In vitro lipase inhibition assay; assay type: biochemical
T1 sequence (P16233 17-465): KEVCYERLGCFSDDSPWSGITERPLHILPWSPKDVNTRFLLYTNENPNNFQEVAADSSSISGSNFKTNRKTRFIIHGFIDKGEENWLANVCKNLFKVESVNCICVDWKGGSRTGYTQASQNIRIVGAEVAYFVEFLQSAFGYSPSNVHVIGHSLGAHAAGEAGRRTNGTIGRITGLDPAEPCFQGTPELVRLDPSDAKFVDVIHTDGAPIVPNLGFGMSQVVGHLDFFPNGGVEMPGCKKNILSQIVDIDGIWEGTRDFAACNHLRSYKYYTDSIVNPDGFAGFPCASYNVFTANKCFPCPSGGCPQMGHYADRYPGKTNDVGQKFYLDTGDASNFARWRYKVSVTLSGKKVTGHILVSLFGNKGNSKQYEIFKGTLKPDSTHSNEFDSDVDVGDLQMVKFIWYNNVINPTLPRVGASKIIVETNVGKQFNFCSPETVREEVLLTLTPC
Experimental: (§1) In cholinesterase activity measurements, the method reported by Karagecili and coworkers was used with minor modifications.^[ [23] ^] Here, acetylchoiniodate was used as a substrate for both enzymes. Lipase enzyme activity measurement was performed according to the method reported by Bulut.^[ [24] ^] In inhibition studies, measurements were made at at least five different concentrations of the molecules synthesized. %activity values were calculated by accepting enzyme activity measurements without inhibitor as 100%. Then, molecule concentrations were plotted against Activity% values.

[1] = target: butyrylcholinesterase (BChE) (Homo sapiens, UniProt P06276); test: biochemical; conditions: at least five concentrations
butyrylcholinesterase (BChE), sequence (P06276 29-602, species assumed): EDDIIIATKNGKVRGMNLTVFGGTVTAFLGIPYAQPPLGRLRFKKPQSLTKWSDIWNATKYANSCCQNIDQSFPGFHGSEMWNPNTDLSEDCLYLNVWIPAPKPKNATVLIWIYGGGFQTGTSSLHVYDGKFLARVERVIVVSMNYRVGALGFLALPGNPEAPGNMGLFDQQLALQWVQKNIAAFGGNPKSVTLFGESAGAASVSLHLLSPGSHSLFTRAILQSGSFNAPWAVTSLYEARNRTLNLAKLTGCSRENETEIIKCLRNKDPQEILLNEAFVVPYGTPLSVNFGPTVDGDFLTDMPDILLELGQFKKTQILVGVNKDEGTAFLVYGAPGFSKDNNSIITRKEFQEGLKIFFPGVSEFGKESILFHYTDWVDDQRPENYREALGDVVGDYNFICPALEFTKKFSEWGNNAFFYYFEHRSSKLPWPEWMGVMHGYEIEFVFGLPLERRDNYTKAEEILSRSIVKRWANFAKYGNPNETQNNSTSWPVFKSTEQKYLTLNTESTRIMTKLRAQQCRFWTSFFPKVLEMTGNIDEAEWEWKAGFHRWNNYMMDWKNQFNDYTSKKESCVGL
Experimental: as §1

[2] = target: acetylcholinesterase (AChE) (Homo sapiens, UniProt P22303); test: biochemical; conditions: at least five concentrations
acetylcholinesterase (AChE), sequence (P22303 32-614, species assumed): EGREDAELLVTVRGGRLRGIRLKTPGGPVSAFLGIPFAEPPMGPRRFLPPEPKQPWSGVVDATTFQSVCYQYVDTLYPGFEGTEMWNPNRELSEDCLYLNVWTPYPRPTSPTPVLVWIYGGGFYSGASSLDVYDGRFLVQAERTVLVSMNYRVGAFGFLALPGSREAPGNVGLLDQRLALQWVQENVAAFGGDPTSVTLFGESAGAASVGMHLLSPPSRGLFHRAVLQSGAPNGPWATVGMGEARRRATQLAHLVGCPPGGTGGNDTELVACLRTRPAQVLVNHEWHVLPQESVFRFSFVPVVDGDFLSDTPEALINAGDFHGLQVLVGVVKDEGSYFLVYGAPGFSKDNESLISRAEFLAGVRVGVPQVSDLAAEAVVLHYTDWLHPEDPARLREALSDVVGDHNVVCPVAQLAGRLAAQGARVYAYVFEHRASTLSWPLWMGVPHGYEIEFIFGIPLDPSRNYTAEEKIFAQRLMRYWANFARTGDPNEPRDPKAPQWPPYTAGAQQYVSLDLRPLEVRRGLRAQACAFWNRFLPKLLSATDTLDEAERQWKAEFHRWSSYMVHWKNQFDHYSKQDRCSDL
Experimental: as §1

| SMILES | Effect on lipase in the concentration ranges studied (pancreatic lipase; no IC50 given in Table 5) | IC50 [1] [µM] | IC50 [2] [µM] | IC50 (pancreatic lipase; at least five concentrations) [µM] |
| --- | --- | --- | --- | --- |
| O=C(NCc1ccccn1)c1ccnc(-c2cc(C(=O)NCc3ccccn3)ccn2)c1 [L1, N4,N4′‐bis(pyridin‐2‐ylmethyl)‐[2,2′‐bipyridine]‐4,4′‐dicarboxamide] | did not show a linear effect | 68.1 | 173 |  |
| O=C(NCC1CCCCN1)c1ccnc(-c2cc(C(=O)NCC3CCCCN3)ccn2)c1 (stereo not drawn) [L2, N4,N4′‐bis(piperidin‐2‐ylmethyl)‐[2,2′‐bipyridine]‐4,4′‐dicarboxamide] |  | 8.83 | 10.2 | 24.1 |
